Assay results from ChEMBL document CHEMBL1151474, “Replication of Colonic Crohn's Disease Mucosal Escherichia coli Isolates within Macrophages and Their Susceptibility to Antibiotics” (Antimicrob Agents Chemother, 2008).
Converted amounts (≈) assume the structure as drawn. The source made the active and inactive calls. No cut-off for these calls is given here.

Experiments:
Escherichia coli [1] = assay: Antibacterial activity against mucosa-associated Escherichia coli isolates isolated from patients with Crohn's disease by disk diffusion method; assay type: functional
J774.A1 [2] = assay: Cytotoxicity against mouse J774A1 cells assessed as release of adenylate kinase at 100 ug/ml after 3 hrs […] relative to control; assay type: cell-based; details: j774.a1, 3 h
Escherichia coli [3] = assay: Antibacterial activity against Escherichia coli isolates isolated from patients with Crohn's disease at 15 ug/disk by susceptibility testing disk method; assay type: functional
Escherichia coli [4] = assay: Antibacterial activity against Escherichia coli isolate HM580 isolated from colonic mucosal biopsies of patient with Crohn's disease after 24 hrs by Etest antibiotic concentration gradient method; assay type: functional; details: isolate HM580, 24 h
Escherichia coli [5] = assay: Antibacterial activity Escherichia coli isolate HM419 isolated from ileo-colonic mucosal biopsies of patient with Crohn's disease after 24 hrs by Etest antibiotic concentration gradient method; assay type: functional; details: isolate HM419, 24 h
Escherichia coli [6] = assay: Antibacterial activity against Escherichia coli isolate HM95 isolated from ileal mucosal biopsies of patient with Crohn's disease after 24 hrs by Etest antibiotic concentration gradient method; assay type: functional; details: isolate HM95, 24 h
Escherichia coli [7] = assay: Antibacterial activity against gentamicin-treated internalized Escherichia coli isolate HM605 isolated from colonic mucosal biopsies of patient with Crohn's disease in mouse J774A1 cells assessed as intracellular killing of bacteria at 0.4 ug/ml after 3 hrs; assay type: functional, J774.A1
Escherichia coli [8] = assay: Antibacterial activity against mucosa-associated Escherichia coli isolate HM456 isolated from patient with irritable bowel syndrome or sporadic polyps after 24 hrs by Etest antibiotic concentration gradient method; assay type: functional; details: isolate HM456, 24 h
Escherichia coli [9] = assay: Antibacterial activity against Escherichia coli isolate HM605 isolated from colonic mucosal biopsies of patient with Crohn's disease
Escherichia coli [10] = assay: Antibacterial activity against mucosa-associated Escherichia coli isolate HM454 isolated from patient with irritable bowel syndrome or sporadic polyps after 24 hrs by Etest antibiotic concentration gradient method; assay type: functional; details: isolate HM454, 24 h
Escherichia coli [11] = assay: Antibacterial activity against Escherichia coli isolate HM154 isolated from colonic mucosal biopsies of patient with Crohn's disease after 24 hrs by Etest antibiotic concentration gradient method; assay type: functional; details: isolate HM154, 24 h
Escherichia coli [12] = assay: Antibacterial activity against Escherichia coli isolate HM615 isolated from colonic mucosal biopsies of patient with Crohn's disease after 24 hrs by Etest antibiotic concentration gradient method; assay type: functional; details: isolate HM615, 24 h
Escherichia coli [13] = assay: Antibacterial activity against extracellular Escherichia coli isolate HM605 isolated from colonic mucosal biopsies of patient with Crohn's disease at 0.01 to 10 ug/ml after 3 hrs; assay type: functional, organism-based
Escherichia coli [14] = assay: Antibacterial activity against mucosa-associated Escherichia coli isolate HM428 isolated from patient with irritable bowel syndrome or sporadic polyps after 24 hrs by Etest antibiotic concentration gradient method; assay type: functional; details: isolate HM428, 24 h
Escherichia coli [15] = assay: Antibacterial activity Escherichia coli isolate HM413 isolated from ileo-colonic mucosal biopsies of patient with Crohn's disease after 24 hrs by Etest antibiotic concentration gradient method; assay type: functional; details: isolate HM413, 24 h
Escherichia coli [16] = assay: Antibacterial activity against Escherichia coli isolate HM605 isolated from colonic mucosal biopsies of patient with Crohn's disease after 24 hrs by Etest antibiotic concentration gradient method; assay type: functional; details: isolate HM605, 24 h
[17] = Cmax in patient with Crohn's disease at 500 mg administered orally; assay type: ADME, organism-based; set-up: dose 500 mg, route oral; details: human, in vivo, po
Escherichia coli [18] = assay: Antibacterial activity against gentamicin-treated internalized Escherichia coli isolate HM580 in mouse J774A1 cells isolated from colonic mucosal biopsies of patient with Crohn's disease assessed as intracellular killing of bacteria at 10% compound Cmax after 3 hrs; assay type: functional, J774.A1
J774.A1 [19] = assay: Cytotoxicity against mouse J774A1 cells assessed as macrophage number at 3 ug/ml after 3 hrs by total cell protein assay; assay type: cell-based; details: j774.a1, 3 h
[20] = Cmax in healthy human at 500 mg administered orally; assay type: ADME, organism-based; set-up: dose 500 mg, route oral; details: in vivo, po
Escherichia coli [21] = assay: Antibacterial activity against Escherichia coli K-12 after 24 hrs by Etest antibiotic concentration gradient method; assay type: functional; details: K-12, 24 h
Escherichia coli [22] = assay: Antibacterial activity against gentamicin-treated internalized Escherichia coli isolate HM605 isolated from colonic mucosal biopsies of patient with Crohn's disease in mouse J774A1 cells assessed as intracellular killing of bacteria at 3 ug/ml after 3 hrs; assay type: functional, J774.A1
Escherichia coli [23] = assay: Antibacterial activity against gentamicin-treated internalized Escherichia coli isolate HM605 in mouse J774A1 cells isolated from colonic mucosal biopsies of patient with Crohn's disease assessed as intracellular killing of bacteria at 10% compound Cmax after 3 hrs; assay type: functional, J774.A1
Escherichia coli [24] = assay: Antibacterial activity against gentamicin-treated internalized Escherichia coli isolate HM615 in mouse J774A1 cells isolated from colonic mucosal biopsies of patient with Crohn's disease assessed as intracellular killing of bacteria at 10% compound Cmax after 3 hrs; assay type: functional, J774.A1
Escherichia coli [25] = assay: Antibacterial activity against Escherichia coli isolates isolated from patients with Crohn's disease at 5 ug/disk by susceptibility testing disk method; assay type: functional
Escherichia coli [26] = assay: Antibacterial activity against gentamicin-treated internalized Escherichia coli isolate LF82 in mouse J774A1 cells isolated from chronic ileal lesions of patient with Crohn's disease assessed as intracellular killing of bacteria at 10% compound Cmax after 3 hrs; assay type: functional, J774.A1
J774.A1 [27] = assay: Cytotoxicity against mouse J774A1 cells assessed as macrophage number at […] ug/ml after 3 hrs by total cell protein assay; assay type: cell-based; details: j774.a1, 3 h
Escherichia coli [28] = assay: Antibacterial activity against gentamicin-treated internalized Escherichia coli isolate HM605 isolated from colonic mucosal biopsies of patient with Crohn's disease in mouse J774A1 cells assessed as intracellular killing of bacteria at […] ug/ml after 3 hrs; assay type: functional, J774.A1

Structure (SMILES)	Activity (Escherichia coli [1])	Activity (J774.A1 [2])	MIC (Escherichia coli [4])	MIC (Escherichia coli [5])	MIC (Escherichia coli [6])	MIC (Escherichia coli [8])	MBC (Escherichia coli [9])	MIC (Escherichia coli [10])	MIC (Escherichia coli [11])	MIC (Escherichia coli [12])	Activity (Escherichia coli [13])	MIC (Escherichia coli [14])	MIC (Escherichia coli [15])	MIC (Escherichia coli [16])	Activity (Escherichia coli [18])	MIC (Escherichia coli [21])	Activity (Escherichia coli [23])	Activity (Escherichia coli [24])	Activity (Escherichia coli [25])	Activity (Escherichia coli [26])	other results
CCn1cc(C(=O)O)c(=O)c2ccc(C)nc21 [NALIDIXIC ACID]	100%	90%	–	–	–	–	–	–	–	–	–	–	–	–	–	–	–	–	–	–	–
CC[C@H]1OC(=O)[C@H](C)[C@@H](O[C@H]2C[C@@](C)(OC)[C@@H](O)[C@H](C)O2)[C@H](C)[C@@H](O[C@@H]2O[C@H](C)C[C@H](N(C)C)[C@H]2O)[C@](C)(O)C[C@@H](C)CN(C)[C@H](C)[C@@H](O)[C@]1(C)O [AZITHROMYCIN]	–	90%	≤ 2 mg/L	≤ 2 mg/L	≤ 2 mg/L	≤ 2 mg/L	5 mg/L (≈ 6.68 µM)	≤ 2 mg/L	≤ 2 mg/L	≤ 2 mg/L	Active	≤ 2 mg/L	≤ 2 mg/L	3 mg/L (≈ 4.01 µM)	–	–	–	–	–	–	Activity (Escherichia coli [3]): 78%; Activity (Escherichia coli [7]): 41%; Cmax [17]: 0.4 µg/mL
O=C(N[C@H](CO)[C@H](O)c1ccc([N+](=O)[O-])cc1)C(Cl)Cl [CHLORAMPHENICOL]	62%	90%	–	–	–	–	–	–	–	–	–	–	–	–	–	–	–	–	–	–	–
CC[C@H]1OC(=O)[C@H](C)[C@@H](O[C@H]2C[C@@](C)(OC)[C@@H](O)[C@H](C)O2)[C@H](C)[C@@H](O[C@@H]2O[C@H](C)C[C@H](N(C)C)[C@H]2O)[C@](C)(OC)C[C@@H](C)C(=O)[C@H](C)[C@@H](O)[C@]1(C)O [CLARITHROMYCIN]	–	90%	≥ 16 mg/L	≥ 16 mg/L	≥ 16 mg/L	≥ 16 mg/L	3 mg/L (≈ 4.01 µM)	≥ 16 mg/L	≥ 16 mg/L	≥ 16 mg/L	Active	≥ 16 mg/L	≥ 16 mg/L	16 mg/L (≈ 21.4 µM)	57.5%	24 mg/L (≈ 32.1 µM)	33.5%	81.8%	0%	55.2%	Activity (J774.A1 [19]): 73.4; Cmax [20]: 3 µg/mL; Activity (Escherichia coli [22]): 62.1%
CO[C@H]1/C=C/O[C@@]2(C)Oc3c(C)c(O)c4c(O)c(c(/C=N/N5CCN(C)CC5)c(O)c4c3C2=O)NC(=O)/C(C)=C\C=C\[C@H](C)[C@H](O)[C@@H](C)[C@@H](O)[C@@H](C)[C@H](OC(C)=O)[C@@H]1C [RIFAMPIN]	–	90%	≥ 4 mg/L	≥ 4 mg/L	≥ 4 mg/L	≥ 4 mg/L	3 mg/L (≈ 3.65 µM)	≥ 4 mg/L	≥ 4 mg/L	≥ 4 mg/L	Active	≥ 4 mg/L	2 mg/L (≈ 2.43 µM)	6 mg/L (≈ 7.29 µM)	35.8%	3 mg/L (≈ 3.65 µM)	32.6%	80.2%	0%	32.8%	Activity (J774.A1 [27]): 94.4; Activity (Escherichia coli [28]): 85.1%
CC1(C)S[C@@H]2[C@H](NC(=O)Cc3ccccc3)C(=O)N2[C@H]1C(=O)O [PENICILLIN G]	0%	90%	–	–	–	–	–	–	–	–	–	–	–	–	–	–	–	–	–	–	–
